The record followed here is paper PMC2710618 (Biochemistry, 2008).

In assay [1] the target is T1, B. anthracis OSB-CoA synthetase (Bacillus anthracis, UniProt Q81K97). Description: biochemical. The class given is biochemical. To be noted: for Km: read-out: Apparent Km.
The target of assay [2] is T1, B. anthracis OSB-CoA synthetase. In words: biochemical. Format: binding.
The target is the same in assay [3]. In words: biochemical. Format: biochemical. To be noted: for Km: read-out: Km of varied substrate.
The test system of assay [4] is B. anthracis ∆ANR strain. Format: cell-based, Bacillus anthracis.

In general, kcat refers to the maximal rate divided by the concentration of active sites. As a reminder, the Km is the substrate concentration at which the rate is half of its maximum. By Kd is commonly meant the concentration at which binding is half-saturated. Low readings indicate a tighter complex, high ones a looser complex. What is called Ki is the equilibrium dissociation constant of an inhibitor or competing ligand from its target.

“And” between values parts separate entries of the source, which are not always exact repeats. Identical values can stand only once. “Also recorded” adds a separate entry of the source. Like-named read-outs stand apart in the source and are kept apart here.

T1 sequence (Q81K97 whole entry, looked up): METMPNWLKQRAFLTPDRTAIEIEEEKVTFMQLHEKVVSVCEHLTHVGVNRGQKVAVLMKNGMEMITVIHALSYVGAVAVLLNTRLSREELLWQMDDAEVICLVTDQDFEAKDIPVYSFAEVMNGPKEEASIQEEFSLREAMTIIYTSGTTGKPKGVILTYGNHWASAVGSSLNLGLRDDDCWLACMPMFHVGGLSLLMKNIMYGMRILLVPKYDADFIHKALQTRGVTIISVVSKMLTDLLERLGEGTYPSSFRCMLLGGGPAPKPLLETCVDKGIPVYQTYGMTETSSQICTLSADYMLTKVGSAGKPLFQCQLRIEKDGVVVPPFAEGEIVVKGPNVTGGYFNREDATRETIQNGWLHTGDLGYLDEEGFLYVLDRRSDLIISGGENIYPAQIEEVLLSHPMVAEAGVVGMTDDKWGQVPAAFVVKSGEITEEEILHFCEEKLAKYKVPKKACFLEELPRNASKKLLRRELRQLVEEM

Consider `O=C(O)CCC(=O)c1ccccc1C(F)(F)F` [Compound 5, 4-(2-trifluoromethylphenyl)-4-oxobutyric acid], for which the “reduction in kcat compared to OSB” value in assay [1] came out at 10 fold. In addition, in assay [1] (read-out: residual activity as substrate), the remaining activity at 1000 µM worked out at 5.8%.
Consider `O=C(O)CCC(=O)c1ccccc1C(F)(F)F`, for which, in assay [1], the “decrease in kcat/Km compared to OSB” value turned out to be 100 fold.
For `Nc1ncnc2c1ncn2[C@@H]1O[C@H](COP(=O)(O)OP(=O)(O)OP(=O)(O)O)[C@@H](O)[C@H]1O` [ATP], in assay [1] (pH 7.5, 21°C), the kcat worked out at 2.55 ± 0.0533 s⁻¹ and the Km stood at 26.8 ± 2.7 µM. Also, in assay [2], the affinity, expressed as Kd, was 131 ± 22 µM and the “binding to free enzyme” value is reported as “No significant binding”.
Regarding `CC(C)(COP(=O)(O)OP(=O)(O)OC[C@H]1O[C@@H](n2cnc3c(N)ncnc32)[C@H](O)[C@@H]1OP(=O)(O)O)[C@@H](O)C(=O)NCCC(=O)NCCS` [CoA], in assay [1] (pH 7.5), the kcat was 2.6 ± 0.075 s⁻¹ and the Km was determined as 304 ± 22.1 µM. Further, in assay [1], the Km was 279 µM and 194 µM and 269 µM and 231 µM. In assay [2], the “binding to enzyme-Mg^2+ATP complex” value was “no significant binding” and the “binding to free enzyme” value is “no significant binding”. In addition, the Km in assay [3] was 49.9 µM and 66.2 µM and 39.3 µM.
Take `Nc1ncnc2c1ncn2[C@@H]1O[C@H](COS(=O)(=O)NC(=O)CCC(=O)c2ccccc2C(F)(F)F)[C@@H](O)[C@H]1O` [TFMP-butyl-AMS, 5’-O-(N-(2-trifluoromethylphenyl)-4-oxobutyl) adenosine sulfonamide]: in assay [4], the whole cell activity result is listed as “limited whole cell activity”. Besides, in assay [3], the “Ki / αKi values, range in words” value is listed as “low micromolar; also recorded: lower micromolar range”; the “αKi (affinity to enzyme-ATP complex)” value came out at 108 ± 17.0 µM; the Ki is 5.6 µM and 5.2 µM.
With `O=C(O)CCC(=O)c1ccccc1C(=O)O` [OSB, o-succinylbenzoate], in assay [1] (pH 7.5, 21°C), the kcat is 2.58 ± 0.06 s⁻¹ and the Km amounted to 21.9 ± 2 µM. In addition, the “binding to free enzyme” value in assay [2] is listed as “no significant binding”. The Michaelis constant (Km) in assay [3] is 3.6 µM and 2.8 µM.
As for `CC(C)(COP(=O)(O)OP(=O)(O)OC[C@H]1O[C@@H](n2cnc3c(N)ncnc32)[C@H](O)[C@@H]1OP(=O)(O)O)[C@@H](O)C(=O)NCCC(=O)NCCSC(=O)c1ccccc1` [Benzoyl-CoA, benzoyl-CoA], in assay [3], the Inhibition pattern result is reported as “mixed-type”; the “Ki / αKi values, range in words” value was “millimolar range”; the αKi is reported as 15.3 ± 2.6 mM; the Ki was found to be 3000 ± 500 µM.
Consider `Nc1ncnc2c1ncn2[C@@H]1O[C@H](COP(=O)(O)O)[C@@H](O)[C@H]1O` [AMP], for which, in assay [3], the “Ki / αKi values, range in words” value is “millimolar range”; the Ki is 3600 µM and 4600 µM.
